Literature values in patent publication US20160281133A1, “STABILIZATION AND ISOLATION OF EXTRACELLULAR NUCLEIC ACIDS” (QIAGEN GMBH, priority 2013, published 2016).
Like-named read-outs stand apart in the source and are kept apart here. Where a SMILES comes first, the peptide text is derived from it. [ ]: non-standard residue; d: D form. Nle = CCCC[CH](N)C(=O)O

Assays:
COX-1 = COX-1 (Homo sapiens, UniProt P23219); conditions: cited from earlier work
COX-2 = conditions: cited from earlier work
caspase-1 [1] = target: T1, caspase-1 (Homo sapiens, UniProt P29466); conditions: cited from earlier work
T1 sequence (P29466 120-297 limits assumed): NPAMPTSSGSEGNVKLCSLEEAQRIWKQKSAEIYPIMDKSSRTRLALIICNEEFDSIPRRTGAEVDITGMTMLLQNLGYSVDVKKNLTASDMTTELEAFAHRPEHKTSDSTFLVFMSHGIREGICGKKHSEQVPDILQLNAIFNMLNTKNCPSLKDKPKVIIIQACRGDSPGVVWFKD
T1 sequence (P29466 317-404 limits assumed): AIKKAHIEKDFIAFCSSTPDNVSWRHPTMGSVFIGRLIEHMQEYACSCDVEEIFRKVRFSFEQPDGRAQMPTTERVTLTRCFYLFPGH

caspase-10 = target: T2, caspase-10 (Homo sapiens, UniProt Q92851); conditions: value type not repeated in the cell; cited from earlier work
T2 sequence (Q92851 220-415 limits assumed): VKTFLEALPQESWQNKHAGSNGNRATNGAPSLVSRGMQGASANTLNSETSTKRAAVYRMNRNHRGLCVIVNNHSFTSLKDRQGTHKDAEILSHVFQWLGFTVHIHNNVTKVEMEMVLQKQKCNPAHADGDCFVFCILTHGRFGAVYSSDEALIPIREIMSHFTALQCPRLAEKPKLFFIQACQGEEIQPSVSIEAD
T2 sequence (Q92851 416-521 limits assumed): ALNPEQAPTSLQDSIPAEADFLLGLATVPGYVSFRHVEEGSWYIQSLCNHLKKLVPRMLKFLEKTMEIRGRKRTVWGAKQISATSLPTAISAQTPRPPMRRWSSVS

Stat3 = Stat3 (Homo sapiens, UniProt P40763); conditions: read-out: DB50 (concentration of peptide at which DNA-binding activity is inhibited by 50%); cited from earlier work
Sequence of Stat3 (P40763 whole entry, species assumed): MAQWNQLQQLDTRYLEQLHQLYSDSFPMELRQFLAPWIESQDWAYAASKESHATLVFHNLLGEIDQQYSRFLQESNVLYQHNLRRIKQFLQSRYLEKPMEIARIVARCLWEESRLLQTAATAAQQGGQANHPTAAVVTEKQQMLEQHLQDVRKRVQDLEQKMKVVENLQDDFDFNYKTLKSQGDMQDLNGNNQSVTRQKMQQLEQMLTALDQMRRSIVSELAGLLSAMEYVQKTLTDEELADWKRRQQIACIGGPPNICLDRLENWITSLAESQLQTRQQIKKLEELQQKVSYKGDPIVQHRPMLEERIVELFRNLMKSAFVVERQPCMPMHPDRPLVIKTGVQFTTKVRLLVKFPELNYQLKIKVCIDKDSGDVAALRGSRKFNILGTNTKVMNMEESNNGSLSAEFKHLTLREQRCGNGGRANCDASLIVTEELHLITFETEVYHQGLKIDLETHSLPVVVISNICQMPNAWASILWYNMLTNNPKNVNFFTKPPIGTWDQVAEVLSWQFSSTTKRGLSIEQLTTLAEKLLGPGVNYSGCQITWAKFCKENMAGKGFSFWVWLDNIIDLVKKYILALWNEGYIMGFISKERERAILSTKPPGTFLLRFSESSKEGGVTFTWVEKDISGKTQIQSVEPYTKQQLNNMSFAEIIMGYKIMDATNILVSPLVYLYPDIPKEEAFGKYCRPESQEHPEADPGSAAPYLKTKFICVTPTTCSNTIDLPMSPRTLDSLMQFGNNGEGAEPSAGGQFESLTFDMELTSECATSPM

caspase-8 = caspase-8 (Homo sapiens, UniProt Q14790); conditions: cited from earlier work
Sequence of caspase-8 (Q14790 217-374 limits assumed, species assumed): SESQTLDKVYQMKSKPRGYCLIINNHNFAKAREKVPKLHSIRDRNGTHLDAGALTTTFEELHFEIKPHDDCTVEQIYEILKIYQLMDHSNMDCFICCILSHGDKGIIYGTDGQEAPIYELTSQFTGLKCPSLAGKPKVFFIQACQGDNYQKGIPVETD
Sequence of caspase-8 (Q14790 385-479 limits assumed, species assumed): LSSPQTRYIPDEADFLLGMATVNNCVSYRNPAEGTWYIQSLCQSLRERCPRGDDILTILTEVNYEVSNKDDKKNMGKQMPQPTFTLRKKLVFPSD

anthrax lethal factor = anthrax lethal factor (Bacillus anthracis, UniProt P15917); conditions: cited from earlier work
Sequence of anthrax lethal factor (P15917 34-809 limits assumed): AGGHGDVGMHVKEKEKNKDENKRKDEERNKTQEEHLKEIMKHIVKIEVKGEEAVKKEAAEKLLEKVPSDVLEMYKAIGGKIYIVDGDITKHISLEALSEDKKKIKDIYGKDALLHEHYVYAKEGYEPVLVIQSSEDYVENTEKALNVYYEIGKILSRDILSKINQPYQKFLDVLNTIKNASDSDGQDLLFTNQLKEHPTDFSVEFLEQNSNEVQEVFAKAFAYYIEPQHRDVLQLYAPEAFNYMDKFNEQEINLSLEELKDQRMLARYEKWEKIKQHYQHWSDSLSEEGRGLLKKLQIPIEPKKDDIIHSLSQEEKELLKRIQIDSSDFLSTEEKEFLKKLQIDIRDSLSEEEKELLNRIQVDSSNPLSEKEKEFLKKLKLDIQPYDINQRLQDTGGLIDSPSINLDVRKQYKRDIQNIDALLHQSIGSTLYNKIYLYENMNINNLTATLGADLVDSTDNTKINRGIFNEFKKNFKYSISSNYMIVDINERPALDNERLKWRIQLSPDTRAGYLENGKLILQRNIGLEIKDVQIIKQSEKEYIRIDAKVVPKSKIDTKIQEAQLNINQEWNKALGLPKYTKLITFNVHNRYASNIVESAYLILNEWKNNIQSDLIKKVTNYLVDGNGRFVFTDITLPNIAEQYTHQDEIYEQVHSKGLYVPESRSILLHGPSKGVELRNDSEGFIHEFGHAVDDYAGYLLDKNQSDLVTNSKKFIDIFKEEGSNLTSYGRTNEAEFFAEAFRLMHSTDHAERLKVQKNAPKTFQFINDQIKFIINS

pancreatic duct cells = conditions: cited from earlier work
PI3K = conditions: cited from earlier work
LDH % release = conditions: cited from earlier work
[2] = system: TNF-induced PMN-EC adhesion; conditions: cited from earlier work
[3] = system: TNF-induced inhibition of DNA synthesis; conditions: cited from earlier work
proliferation = conditions: cited from earlier work
PKC = conditions: cited from earlier work
Bax-mediated apoptosis = conditions: functions as effectively as Caspase Inhibitor VI (Z-VAD-FMK); cited from earlier work
caspase-1 [4] = target: T1, caspase-1; conditions: cited from earlier work; remark: listed apart in the source
myocardial infarct size = conditions: during reperfusion; cited from earlier work
[5] = system: etoposide-induced cortical neuron death; conditions: cited from earlier work
[6] = in neuron culture medium at 37° C.; cited from earlier work
caspase-3 = target: T3, caspase-3 (Homo sapiens, UniProt P42574); conditions: cited from earlier work
T3 sequence (P42574 29-175 limits assumed): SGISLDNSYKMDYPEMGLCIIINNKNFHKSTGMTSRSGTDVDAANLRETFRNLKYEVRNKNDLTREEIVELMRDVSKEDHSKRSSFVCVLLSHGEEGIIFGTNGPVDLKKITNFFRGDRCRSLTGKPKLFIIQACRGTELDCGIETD
T3 sequence (P42574 176-277 limits assumed): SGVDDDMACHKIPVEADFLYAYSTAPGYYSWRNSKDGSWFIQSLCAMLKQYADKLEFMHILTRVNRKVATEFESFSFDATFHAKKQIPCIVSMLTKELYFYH

caspase-7 = target: T4, caspase-7 (Homo sapiens, UniProt P55210); conditions: cited from earlier work
T4 sequence (P55210 24-198 limits assumed): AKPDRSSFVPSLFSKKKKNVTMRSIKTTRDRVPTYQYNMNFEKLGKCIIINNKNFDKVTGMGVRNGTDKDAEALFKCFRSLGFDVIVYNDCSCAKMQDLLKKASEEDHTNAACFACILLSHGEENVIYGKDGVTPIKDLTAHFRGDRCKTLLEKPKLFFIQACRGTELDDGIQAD
T4 sequence (P55210 207-303 limits assumed): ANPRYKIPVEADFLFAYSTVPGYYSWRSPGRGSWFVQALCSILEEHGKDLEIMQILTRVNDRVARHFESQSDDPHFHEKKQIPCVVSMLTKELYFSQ

caspase-2 = target: T5, caspase-2 (Homo sapiens, UniProt P42575); conditions: cited from earlier work
T5 sequence (P42575 170-325 limits assumed): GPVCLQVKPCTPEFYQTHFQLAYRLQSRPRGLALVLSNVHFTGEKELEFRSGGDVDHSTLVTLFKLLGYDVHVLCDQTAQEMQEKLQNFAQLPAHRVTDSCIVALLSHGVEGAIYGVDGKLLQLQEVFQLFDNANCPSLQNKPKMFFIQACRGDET
T5 sequence (P42575 348-452 limits assumed): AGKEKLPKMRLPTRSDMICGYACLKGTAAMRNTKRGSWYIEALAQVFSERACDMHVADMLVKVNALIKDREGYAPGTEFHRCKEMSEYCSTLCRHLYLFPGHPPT

calpain I = calpain I (Homo sapiens, UniProt P07384); conditions: cited from earlier work
Sequence of calpain I (P07384 whole entry, one chain of several): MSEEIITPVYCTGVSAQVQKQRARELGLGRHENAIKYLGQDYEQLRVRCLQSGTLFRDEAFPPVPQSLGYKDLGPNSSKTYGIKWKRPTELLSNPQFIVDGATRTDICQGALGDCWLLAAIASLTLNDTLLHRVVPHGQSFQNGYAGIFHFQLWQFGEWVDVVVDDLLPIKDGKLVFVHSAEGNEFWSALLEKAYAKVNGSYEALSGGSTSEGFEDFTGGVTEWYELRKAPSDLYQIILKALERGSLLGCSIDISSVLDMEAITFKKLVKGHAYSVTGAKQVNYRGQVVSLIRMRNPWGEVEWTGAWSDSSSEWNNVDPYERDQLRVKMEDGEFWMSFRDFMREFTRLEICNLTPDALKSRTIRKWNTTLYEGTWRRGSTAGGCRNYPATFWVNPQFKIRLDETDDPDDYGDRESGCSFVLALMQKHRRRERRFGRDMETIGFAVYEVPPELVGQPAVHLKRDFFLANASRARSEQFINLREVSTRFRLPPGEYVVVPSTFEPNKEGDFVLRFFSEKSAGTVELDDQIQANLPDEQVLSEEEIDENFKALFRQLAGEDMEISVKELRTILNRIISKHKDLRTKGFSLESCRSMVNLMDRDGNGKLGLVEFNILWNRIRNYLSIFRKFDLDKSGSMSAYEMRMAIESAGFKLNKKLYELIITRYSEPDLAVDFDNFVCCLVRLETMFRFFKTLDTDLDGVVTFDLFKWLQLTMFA

calpain II = target: T6, calpain II (Homo sapiens, UniProt P17655); conditions: cited from earlier work
T6 sequence (P17655 1-700): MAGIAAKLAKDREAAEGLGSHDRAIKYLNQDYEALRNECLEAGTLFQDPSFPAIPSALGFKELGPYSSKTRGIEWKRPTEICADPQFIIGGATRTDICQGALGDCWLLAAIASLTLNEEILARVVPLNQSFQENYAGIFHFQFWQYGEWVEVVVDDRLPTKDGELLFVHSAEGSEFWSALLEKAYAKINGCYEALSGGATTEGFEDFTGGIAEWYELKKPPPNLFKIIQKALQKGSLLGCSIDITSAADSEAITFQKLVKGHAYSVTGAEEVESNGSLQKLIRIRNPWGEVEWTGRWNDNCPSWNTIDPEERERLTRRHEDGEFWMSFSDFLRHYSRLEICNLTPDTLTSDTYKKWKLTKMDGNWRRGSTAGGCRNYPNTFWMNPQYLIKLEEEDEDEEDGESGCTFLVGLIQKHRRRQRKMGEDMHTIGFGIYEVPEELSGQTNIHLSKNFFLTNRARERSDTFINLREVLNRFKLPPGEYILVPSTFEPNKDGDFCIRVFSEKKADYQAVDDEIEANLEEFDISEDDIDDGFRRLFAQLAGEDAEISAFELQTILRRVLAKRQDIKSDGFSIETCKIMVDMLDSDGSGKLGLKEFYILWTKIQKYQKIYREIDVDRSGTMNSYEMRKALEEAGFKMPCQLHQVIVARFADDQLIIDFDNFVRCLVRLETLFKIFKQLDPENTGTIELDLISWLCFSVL
T6 sequence (P04632 1-268 partner): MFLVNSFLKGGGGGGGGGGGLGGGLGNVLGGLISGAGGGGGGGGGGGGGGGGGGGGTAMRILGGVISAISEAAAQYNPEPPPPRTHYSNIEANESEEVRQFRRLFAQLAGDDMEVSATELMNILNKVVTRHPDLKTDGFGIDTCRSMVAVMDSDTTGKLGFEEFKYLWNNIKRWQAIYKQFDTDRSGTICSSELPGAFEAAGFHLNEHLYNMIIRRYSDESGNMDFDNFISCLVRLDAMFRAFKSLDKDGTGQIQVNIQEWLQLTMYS

cathepsin L = cathepsin L (Homo sapiens, UniProt P07711); conditions: cited from earlier work
Sequence of cathepsin L (P07711 114-333, species assumed): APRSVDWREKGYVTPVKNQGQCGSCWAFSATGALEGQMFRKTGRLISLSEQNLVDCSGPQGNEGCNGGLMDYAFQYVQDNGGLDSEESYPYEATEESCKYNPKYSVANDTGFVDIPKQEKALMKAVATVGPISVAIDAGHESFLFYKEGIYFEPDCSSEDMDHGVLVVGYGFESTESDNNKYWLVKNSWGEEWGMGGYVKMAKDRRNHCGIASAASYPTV

[7] = target: T7, Omi/HtrA2 (His-Omi134-458) (Homo sapiens, UniProt O43464); conditions: for His-Omi134-458; cited from earlier work
T7 construct: His-Omi134-458; His (N)
T7 sequence (O43464 134-458): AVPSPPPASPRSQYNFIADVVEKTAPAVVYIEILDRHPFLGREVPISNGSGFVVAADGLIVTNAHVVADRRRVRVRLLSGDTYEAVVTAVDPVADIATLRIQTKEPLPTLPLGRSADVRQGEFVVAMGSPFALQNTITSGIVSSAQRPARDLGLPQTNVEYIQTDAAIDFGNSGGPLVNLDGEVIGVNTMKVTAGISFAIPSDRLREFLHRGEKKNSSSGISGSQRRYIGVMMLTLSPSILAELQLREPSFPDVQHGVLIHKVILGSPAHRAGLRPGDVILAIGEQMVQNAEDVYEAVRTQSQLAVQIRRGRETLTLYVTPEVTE

[8] = system: various other serine proteases; conditions: cited from earlier work

Sequence of COX-1 (P23219 24-599): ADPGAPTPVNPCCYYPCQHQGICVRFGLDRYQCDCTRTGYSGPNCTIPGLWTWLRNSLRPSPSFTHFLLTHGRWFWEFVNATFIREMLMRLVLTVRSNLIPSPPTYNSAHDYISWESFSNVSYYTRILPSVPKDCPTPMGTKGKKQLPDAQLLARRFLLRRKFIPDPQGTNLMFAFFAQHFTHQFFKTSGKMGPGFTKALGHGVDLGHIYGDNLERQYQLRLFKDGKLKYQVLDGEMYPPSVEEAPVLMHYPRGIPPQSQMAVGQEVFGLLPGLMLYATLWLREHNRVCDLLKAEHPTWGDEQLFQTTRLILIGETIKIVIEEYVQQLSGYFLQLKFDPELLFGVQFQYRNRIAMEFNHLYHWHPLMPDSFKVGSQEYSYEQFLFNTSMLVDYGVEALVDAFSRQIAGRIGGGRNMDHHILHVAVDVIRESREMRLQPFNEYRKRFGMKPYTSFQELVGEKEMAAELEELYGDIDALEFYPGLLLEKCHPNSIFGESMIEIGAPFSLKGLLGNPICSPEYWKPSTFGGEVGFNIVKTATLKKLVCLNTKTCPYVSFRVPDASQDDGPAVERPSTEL

O=c1c(O)c(-c2ccc(O)cc2)oc2cc(O)cc(O)c12 [Kaempferol]
IC50 (COX-1): 180 µM | IC50 (COX-2): < 15 µM

Ac-Ile-Glu-Thr-Asp-CHO (Ac-IETD-aldehyde) [Granzyme B Inhibitor II]
Ki (caspase-1 [1]): < 0.006 µM | Ki (caspase-10): 0.027 µM

Ac-Pro-Tyr(PO3H2)-Leu-Lys-Thr-Lys-OH (PYLKTK; HELM PEPTIDE1{[ac].P.[O=C([C@H](Cc1ccc(OP(=O)(O)O)cc1)N[*:1])[*:2]].L.K.T.K}$$$$V2.0; SMILES CC(=O)N1CCC[C@H]1C(=O)N[C@@H](Cc1ccc(OP(=O)(O)O)cc1)C(=O)N[C@@H](CC(C)C)C(=O)N[C@@H](CCCCN)C(=O)N[C@H](C(=O)N[C@@H](CCCCN)C(=O)O)[C@@H](C)O) [STAT3 Inhibitor Peptide]
IC50 (Stat3): 235 µM

FC(F)(F)c1cccc(-c2csc(C3COc4ccccc4O3)n2)c1 (stereo not shown) [Caspase Inhibitor X]
Ki (caspase-8): 2.7 µM | effect on activity of anthrax lethal factor (anthrax lethal factor): assisted cleavage of BID, a proapoptotic protein. Weakly affects

CCN1C(=O)C=CC1=O [N-Ethylmaleimide]
IC50 (pancreatic duct cells): 22 µM

O=c1c(O)c(-c2ccc(O)c(O)c2)oc2cc(O)cc(O)c12 [Quercetin(Sophoretin), Quercetin]
IC50 (PI3K): 3.8 µM | IC50 (LDH % release): 0.8 µM | IC50 [2]: 16.7 µM | IC50 [3]: 6.1 µM | IC50 (proliferation): 11.4 µM | IC50 (PKC): 15 μg/ml. It strongly abrogated PI3K and Src kinases, mildly

H-Val-Pro-Met-Leu-Lys-OH (H-VPMLK-OH) [Bax-Inhibiting Peptide, V5]
concentration effective for Bax-mediated apoptosis (Bax-mediated apoptosis): mediated apoptosis (~50-200 μM). Also effectively blocks caspase-

Ac-Tyr-Val-Ala-Asp-CHO [Caspase-1 Inhibitor I]
Ki (caspase-1 [4]): 0.0002 µM

Ac-Leu-Glu-His-Asp-CMK (LEHD; HELM PEPTIDE1{[ac].L.E.H.D.[ClC[*:1]]}$$$$V2.0; SMILES CC(=O)N[C@@H](CC(C)C)C(=O)N[C@@H](CCC(=O)O)C(=O)N[C@@H](Cc1c[nH]cn1)C(=O)N[C@@H](CC(=O)O)C(=O)CCl) [Caspase-9 Inhibitor III]
concentration reported to reduce myocardial infarct size (myocardial infarct size): myocardial infarct size during reperfusion (~70 nM).

O=[N+]([O-])c1ccc(-c2cn3c4c(sc3n2)CCCC4)cc1 [Pifithrin-α, p-Nitro, Cyclic]
higher potency than Pifithrin-α [5]: A cell-permeable p53 inhibitor that exhibits 10-fold higher potency | longer half-life than Pifithrin-α [6]: 50% | t½ [6]: 6 h

Ac-Val-Asp-Val-Ala-Asp-CHO (Ac-VDVAD-aldehyde) [Caspase Inhibitor VIII]
Ki (caspase-3): 0.001 µM | Ki (caspase-7): 0.0075 µM | Ki (caspase-2): 0.0035 µM

CCCCC(C=O)NC(=O)C(CC(C)C)NC(=O)C(CC(C)C)NC(C)=O (stereo not drawn) [Ac-Leu-Leu-Nle-al] (Ac-Leu-Leu-[Nle]-aldehyde; configuration not given here)
Ki (calpain I): 0.19 µM | Ki (calpain II): 0.15 µM | Ki (cathepsin L): 0.0005 µM

O=C1C(=Cc2ccc(-c3ccccc3[N+](=O)[O-])o2)C(=O)N(c2ccccc2)C(=S)N1c1ccccc1 [Omi/HtrA2 Protease Inhibitor, Ucf-101]
IC50 [7]: 9.5 µM | IC50 [8]: ≥ 200 µM
